Data taken from paper PMC6934184, “Selective DNA-PKcs inhibition extends the therapeutic index of localized radiotherapy and chemotherapy” (The Journal of Clinical Investigation, 2019).

Target: T1, NEK7 (Homo sapiens, UniProt Q8TDX7)
T1 construct: purchased Thermo Fisher Scientific (Life Technologies) SelectScreen
Test: SelectScreen Z'LYTE
Type: biochemical
Procedure, shortened: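 SelectScreen broad panel; activity (Z'LYTE, Adapta) plus binding formats. ATP: Km app for CSF1R Z'LYTE; 10 for CAMK1 Adapta. Readout = % per kinase.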

T1 sequence (Q8TDX7 whole entry): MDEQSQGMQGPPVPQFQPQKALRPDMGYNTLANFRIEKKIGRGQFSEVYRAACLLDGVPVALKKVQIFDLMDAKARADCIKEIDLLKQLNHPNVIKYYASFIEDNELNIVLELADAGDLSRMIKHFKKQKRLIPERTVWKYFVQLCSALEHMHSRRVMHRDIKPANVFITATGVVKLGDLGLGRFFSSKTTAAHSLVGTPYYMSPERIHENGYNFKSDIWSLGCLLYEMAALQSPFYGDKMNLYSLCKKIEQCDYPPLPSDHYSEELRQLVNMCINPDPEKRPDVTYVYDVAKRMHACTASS

SMILES: CN(C(=O)CN1CCOCC1)c1ccc2sc3c(-c4cccc5c(=O)cc(N6CC7CCC(C6)O7)oc45)cccc3c2c1 [NU5455]
- inhibition at 1 µM: -2.1%
